We go through 1 compound from patent publication US11998017B2, “Bio-pesticide for Japanese beetles” (priority 2022, dated 2024).

For the experiment, the system named is Japanese beetle. In words: neurological response / paralysis of Japanese beetle after consuming or absorbing quisqualic acid. Format: in vivo, Popillia Japonica. The text has this: The pesticide composition according to one or more embodiments described herein makes use of a phenomenon that is unique to the Japanese beetle. A primary active ingredient of the pesticide is the amino acid quisqualic acid, which elicits a unique neurological response specifically from the Japanese beetle. Quisqualic acid is naturally occurring in the Pelargonium and Quisqualic indica species of plants. As part of this disclosure, it was discovered that ingestion of the plants' essential oil is not required, but that the absorption of the plants' essential oil through contact by the Japanese beetle, can provoke a sufficient neurological response from the beetle, followed by 24-hour paralysis of the Japanese beetle. That is, the Japanese beetle need not consume the composition according to one or more embodiments herein. The composition is an effective pesticide through contact only by the Japanese beetle.
Japanese beetles that do land on the leaves, become saturated with the oil and absorb the paralysis-inducing quisqualic acid. Japanese beetles that do feed on the foliage may then also consume the quisqualic acid. […]

With `N[C@@H](Cn1oc(=O)[nH]c1=O)C(=O)O` [quisqualic acid], the “duration of paralytic state” value (after consumption or absorption through contact) amounted to 24 h. Also, the “time until beetles fall into paralytic state” value (beetles that consume or absorb the quisqualic acid) is 4 to 6 h.
